Where two headings read alike, the source gives them in different places.
How the values were obtained:
[1] = test system: mouse macrophage cell line RAW264.7 cells; experiment: Inhibitory action on intracellular signal transduction after LPS stimulation (Bioplex phosphorylated protein assay); format: cell-based; conditions: LPS 10 ng/mL; 1, 3, 10, 20, 30 min; FIG. 1
Text: FIG. 1-1 is a graph showing the effect of test compound 1 on phosphorylated protein (ATF2) after LPS addition in mouse macrophage cells. An average of triplicate measurement values is shown, mean±standard error (Experimental Example 5, n=3).
FIG. 1-2 is a graph showing the effect of test compound 1 on phosphorylated protein (JNK) after LPS addition in mouse macrophage cells. An average of triplicate measurement values is shown, mean±standard error (Experimental Example 5, n=3).
FIG. 1-3 is a graph showing the effect of test compound 1 on phosphorylated protein (p38MAPK) after LPS addition in mouse macrophage cells. An average of triplicate measurement values is shown, mean±standard error (Experimental Example 5, n=3).
FIG. 1-4 is a graph showing the effect of test compound 1 on phosphorylated protein (IκBα) after LPS addition in mouse macrophage cells. An average of triplicate measurement values is shown, mean±standard error (Experimental Example 5, n=3). […]
A suppressive effect of test compound 1 (compound 72 of • Reference Example B66) on the production of various cytokines by lipopolysaccharide (LPS), which is a TLR4 agonist, using mouse macrophage cell line RAW264.7 cells was examined. […] The supernatant was recovered, and phosphorylated protein was quantified using Bioplex phosphorylated protein assay (Bio-Rad). […]

[2] = test system: mouse macrophage cell line RAW264.7 cells; experiment: Suppressive action on production of mediator from LPS stimulated macrophage; format: cell-based; conditions: LPS 10 ng/ml, overnight culture
Method: A suppressive effect of test compound 1 (compound 72 of Reference Example B66) on the production of various mediators by lipopolysaccharide (LPS), which is a TLR4 agonist, using mouse macrophage cell line RAW264.7 cells was examined. The day before the experiment, the cells were suspended to 5×10^5 cells/mL in RPMI1640 medium supplemented with 10% inactivated fetal bovine serum, plated on a 96 well microplate at 0.2 mL/well and incubated at 37° C., 5% CO2/95% air overnight. The medium was changed to RPMI1640 medium supplemented with 1% inactivated fetal bovine serum, and test compound 1 and LPS (final concentration 10 ng/ml) was added. After overnight culture, cytokine, chemokine, prostaglandin E2 in the culture supernatant was quantified by ELISA, and nitrite ion (stable metabolite of NO) concentration was quantified by a fluorescence method using 2,3-diaminonaphthalene. Test compound 1 was dissolved in N,N-dimethylformamide to 10 mM, diluted with RPMI1640 medium supplemented with 1% inactivated fetal bovine serum to 0.1 mM, further diluted with the medium to 10-fold concentration of the final concentration and 1/10 thereof was added. Test compound 1 suppressed almost all the examined mediator production at an equivalent IC50.

CCOC(=O)C1=CCCC[C@H]1S(=O)(=O)Nc1ccc(F)cc1Cl [test compound 1, ethyl (6R)-6-[(2-chloro-4-fluoroanilino)sulfonyl]-1-cyclohexene-1-carboxylate]
phosphorylated protein after LPS addition (ATF2, JNK, p38MAPK, IκBα, ERK1/2, p90RSK, STAT2, p70 S6 Kinase) [1]: suppressed phosphorylation of all examined proteins involved in LPS signal transduction
IC50 ([2]; ELISA, read-out: IC50, IL-1α production): 1.1 nM
IC50 ([2]; ELISA, read-out: IC50, IL-6 production): 2 nM
IC50 ([2]; ELISA, read-out: IC50, IL-10 production): 1.6 nM
IC50 ([2]; ELISA, read-out: IC50, MIP-2 production): 7.1 nM
IC50 ([2]; ELISA, read-out: IC50, PGE2 production): 4 nM
IC50 ([2]; ELISA, read-out: IC50, TNF-α production): 3.1 nM
IC50 ([2]; fluorescence method with 2,3-diaminonaphthalene, read-out: IC50, NO production (nitrite ion)): 1.8 nM
